Drawing on patent publication US11226337B2, “Chemoproteomic profiling of protein electrophilic and oxidative post-translational modifications” (Zenagem, LLC, priority 2017, dated 2022), this text covers enrichment ratioavg and competition ratioavg for 2 compounds.

What all share (experiment): SILAC RP-ABPP
Assay type in all cases: cell-based

In assay [1] the target is T1, TPP1 Tripeptidylpeptidase 1 (O14773) (Homo sapiens, UniProt O14773).
T1 construct: In Situ Labelling of Cells with Hydrazine Probes for MS Experiments; endogenous in cells; host or cells: HEK293T and MDA-MB-231
T1 sequence (O14773 196-563): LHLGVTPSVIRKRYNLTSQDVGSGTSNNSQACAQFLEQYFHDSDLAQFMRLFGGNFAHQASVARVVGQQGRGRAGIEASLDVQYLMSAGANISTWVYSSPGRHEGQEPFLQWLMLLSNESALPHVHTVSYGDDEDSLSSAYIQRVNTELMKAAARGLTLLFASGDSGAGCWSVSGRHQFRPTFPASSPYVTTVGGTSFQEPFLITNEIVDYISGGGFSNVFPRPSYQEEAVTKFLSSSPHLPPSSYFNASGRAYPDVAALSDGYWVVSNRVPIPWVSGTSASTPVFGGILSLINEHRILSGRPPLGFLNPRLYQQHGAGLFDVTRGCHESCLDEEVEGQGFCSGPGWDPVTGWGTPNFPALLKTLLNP
Particulars: SILAC H/L, MDA-MB-231.

Assay [2] concerns the target T2, SERPINE1 Plasminogen activator inhibitor 1 (P05121) (Homo sapiens, UniProt P05121).
T2 construct: In Situ Labelling of Cells with Hydrazine Probes for MS Experiments; endogenous in cells
Particulars: SILAC H/L, MDA-MB-231.

Assay [3] has as its target T3, KEAP1 Kelchlike ECHassociated protein 1 (Q14145) (Homo sapiens, UniProt Q14145).
T3 construct: shared by both the endogenous and recombinant forms of these proteins; endogenous in cells; host or cells: HEK293T and MDA-MB-231
The note with it: SILAC H/L.

In assay [4] the target is T4, ALDH2 Aldehyde dehydrogenase (P05091) (Homo sapiens, UniProt P05091).
T4 construct: shared by both the endogenous and recombinant forms of these proteins; endogenous in cells; host or cells: HEK293T and MDA-MB-231
T4 sequence (P05091 18-517): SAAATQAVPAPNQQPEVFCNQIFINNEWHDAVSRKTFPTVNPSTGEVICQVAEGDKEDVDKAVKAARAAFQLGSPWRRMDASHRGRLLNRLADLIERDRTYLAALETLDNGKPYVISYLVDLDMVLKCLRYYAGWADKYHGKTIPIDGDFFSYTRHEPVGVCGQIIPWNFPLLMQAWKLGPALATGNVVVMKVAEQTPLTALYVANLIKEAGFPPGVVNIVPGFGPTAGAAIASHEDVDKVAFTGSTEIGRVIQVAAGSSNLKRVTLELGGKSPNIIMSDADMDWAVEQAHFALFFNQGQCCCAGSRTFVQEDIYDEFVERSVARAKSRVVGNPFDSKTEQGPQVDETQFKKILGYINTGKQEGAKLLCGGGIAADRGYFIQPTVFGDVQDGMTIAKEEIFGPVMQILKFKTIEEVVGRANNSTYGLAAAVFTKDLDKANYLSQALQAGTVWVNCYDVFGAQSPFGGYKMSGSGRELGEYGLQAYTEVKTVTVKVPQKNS
Particulars: SILAC H/L, HEK293T. In outline: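 Heavy SILAC HEK293T or MDA-MB-231 cells were treated with hydrazine probe 1 (3 mM, 0.5 h); light cells received non-clickable hydrazine 3 at the same concentration (enrichment) or probe plus 10× competitor 3 (competition). Lysates were mixed, clicked to biotin-azide and analysed by LC-MS; values are median heavy:light peptide ratios averaged over ≥3 replicates.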

T3 sequence (Q14145 whole entry): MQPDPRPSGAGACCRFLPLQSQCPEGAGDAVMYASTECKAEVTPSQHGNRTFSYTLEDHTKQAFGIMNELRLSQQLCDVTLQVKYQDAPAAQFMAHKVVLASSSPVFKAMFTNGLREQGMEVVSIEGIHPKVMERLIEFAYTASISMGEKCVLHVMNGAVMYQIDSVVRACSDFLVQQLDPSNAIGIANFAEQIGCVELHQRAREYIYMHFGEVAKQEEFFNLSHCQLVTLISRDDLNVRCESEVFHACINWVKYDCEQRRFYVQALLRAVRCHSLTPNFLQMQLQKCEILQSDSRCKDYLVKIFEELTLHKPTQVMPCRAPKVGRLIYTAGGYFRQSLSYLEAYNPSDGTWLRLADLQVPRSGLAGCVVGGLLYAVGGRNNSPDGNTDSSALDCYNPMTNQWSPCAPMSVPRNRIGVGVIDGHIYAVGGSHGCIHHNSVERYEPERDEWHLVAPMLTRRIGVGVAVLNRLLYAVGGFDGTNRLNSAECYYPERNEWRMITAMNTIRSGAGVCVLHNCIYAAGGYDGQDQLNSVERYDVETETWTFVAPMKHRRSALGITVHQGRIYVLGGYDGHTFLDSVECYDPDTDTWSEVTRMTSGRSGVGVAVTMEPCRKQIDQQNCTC
T2 sequence (P05121 24-402): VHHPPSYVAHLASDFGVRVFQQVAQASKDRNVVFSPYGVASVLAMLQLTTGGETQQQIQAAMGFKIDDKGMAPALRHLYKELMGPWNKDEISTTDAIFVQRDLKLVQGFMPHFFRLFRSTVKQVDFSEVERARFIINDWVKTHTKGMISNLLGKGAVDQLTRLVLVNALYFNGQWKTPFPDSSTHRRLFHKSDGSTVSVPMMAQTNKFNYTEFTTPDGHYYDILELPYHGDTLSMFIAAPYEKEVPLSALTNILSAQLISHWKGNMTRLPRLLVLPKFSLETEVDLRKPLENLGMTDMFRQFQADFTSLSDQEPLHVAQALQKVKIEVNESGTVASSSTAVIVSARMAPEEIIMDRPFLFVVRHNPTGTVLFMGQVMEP

For the compound `C#CCNN.Cl` [probe 1, prop-2-yn-1-ylhydrazine hydrochloride], the enrichment ratioavg in assay [1] (probe 1 3 mM 0.5 h vs probe 3) is on record as 15; in assay [2] (probe 1 3 mM 0.5 h vs probe 3), 17; in assay [3] (probe 1 3 mM 0.5 h vs probe 3, HEK293T), 17; in assay [4] (probe 1 3 mM 0.5 h vs probe 3), 8. For the same compound, the competition ratioavg was found to be 3 in assay [1] (probe 1 vs probe 1+10x probe 3); 3 in assay [2] (probe 1 vs probe 1+10x probe 3); 20 in assay [3] (probe 1 vs probe 1+10x probe 3, HEK293T); 2 in assay [4] (probe 1 vs probe 1+10x probe 3).

`C#CCCNC(=O)c1ccc(NN)cc1.Cl` [probe 2, N-(but-3-yn-1-yl)-4-hydrazinylbenzamide hydrochloride]: the enrichment ratioavg in assay [1] (probe 2 1 mM 0.5 h vs probe 4) was 18; in assay [2] (probe 2 1 mM 0.5 h vs probe 4), 20; in assay [3] (probe 2 1 mM 0.5 h vs probe 4, MDA-MB-231), 12; in assay [4] (probe 2 1 mM 0.5 h vs probe 4), 11. Also, the competition ratioavg in assay [1] (probe 2 vs probe 2+10x probe 4) amounted to 4; in assay [2] (probe 2 vs probe 2+10x probe 4), 3; in assay [3] (probe 2 vs probe 2+10x probe 4, MDA-MB-231) it was 3; in assay [4] (probe 2 vs probe 2+10x probe 4), 6.
